The results in this text go back to patent publication US20160122387A1, “Angiotensin Peptide and Pharmaceutical Compositions for Disease Treatment” (UNIVERSIDADE FEDERAL DE MINAS GERAIS - UFMG, priority 2012, published 2016).

Assay [1] has as its system thoracic aortic rings of normotensive Wistar rats. The assay is described as follows: Vasorelaxation in thoracic aortic rings of normotensive Wistar rats pre-contracted with phenylephrine. The note with it: aortic rings of Wistar and SHR rats (FIGS. 2A and 2B). Also on record: species or system rat. As for the experimental part: Three- to four-mm rings of the descending thoracic aorta, free from adipose and connective tissue, were maintained in a gasified solution (95% 02 and 5% CO2) of Krebs-Henseleit, at 37° C. under 1.0 g tension, 1 hour for stabilization. The presence of functional endothelium was assessed by the ability of acetylcholine [ACh] (10 μmol/L) to induce more than 70% relaxation of vessels pre-contracted with phenylephrine (Phe) ([…]). The mechanical activity, recorded isometrically by a force transducer, was fed into a recorder-amplifier and a computer equipped with an analog-digital converter board, using CVMS data acquisition/recording software.
The vessels from normotensive Wistar rats and spontaneously hypertensive rats (SHR) were pre-contracted in the same voltage level (approximately 1.0 g tension) at the submaximal concentration of phenylephrine ([…]). Arg0-Ang-(1-7) and Ang-(1-7) were added in increasing cumulative concentrations as the response to phenylephrine was stabilized. Results are presented as mean±SEM. One-way analysis of variance (ANOVA) with Newman-Keuls post test of multiple comparisons was used to compare the concentration response curves obtained in the aortic rings. The vasodilatation effect of arg0-Ang-(1-7) and Ang-(1-7) was expressed as the percentage of decrease in peak concentration induced by phenylephrine. […]

The subject of assay [2] is mesenteric artery rings of SHR. Kind of assay: Vasorelaxation in mesenteric artery rings of SHR. Set-up: species or system rat. As to conditions: expressed as percentage of decrease of phenylephrine contraction. The procedure:
Rings (2.0 mm) of mesenteric artery (2nd and/or 3rd branches) in spontaneously hypertensive rats (SHR), free from adipose and connective tissue, were maintained in a gasified solution (95% 02 and 5% CO2) of Krebs-Hanseleit to 37° C. After a 15 minute stabilization period, the artery was stretched, gradually, to a resting tension considered optimal with respect to its inner diameter. In each arterial segment, the voltage/diameter was calculated by the internal circumference which corresponds to a transmural pressure of 100 mmHg for a relaxed vessel in situ (IC100) using software specific for standardization resistance arteries. For the experiments, the arteries were maintained with an internal circumference, IC1, calculated using the formula IC1=0.90×IC100, in which the development of strength is maximum, as previously described by Mulvany and Halpern (1977). The effective luminal diameter was determined according to the I1=IC1/π equation. The diameter of the vessels used ranged from 200 to 300 μm.
The arteries were stimulated with a high concentration of potassium chloride (KCl 120 mmol/1), in order to assess their functional integrity. […]
The presence of functional endothelium was assessed by the ability of acetylcholine [ACh] […] The mechanical activity was recorded isometrically using a myograph, and this was connected to a system for data acquisition and a computer. […]

A further assay addresses T1, rat receptor Mas (Rattus norvegicus, UniProt P12526).
T1 construct: expressed in transfected cells
T1 sequence (P12526 1-324): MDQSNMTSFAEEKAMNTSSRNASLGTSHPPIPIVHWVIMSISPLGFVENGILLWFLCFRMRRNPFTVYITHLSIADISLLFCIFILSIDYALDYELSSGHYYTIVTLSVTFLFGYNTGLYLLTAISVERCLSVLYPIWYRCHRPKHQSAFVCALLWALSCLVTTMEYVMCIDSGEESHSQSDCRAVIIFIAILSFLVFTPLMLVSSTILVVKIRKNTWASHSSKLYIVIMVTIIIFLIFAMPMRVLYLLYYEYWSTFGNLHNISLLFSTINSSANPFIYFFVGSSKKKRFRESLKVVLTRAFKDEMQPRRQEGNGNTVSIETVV
Kind of assay: Nitric oxide production in CHO cells transfected with the Mas receptor (DAF-FM fluorescence). As to conditions: 10^−7 mol/L, 60 minutes. Type of assay: cell-based. As for the experimental part: Chinese hamster ovary cells (CHO) were stably transfected with the cDNA of the rat receptor Mas driven by a cytomegalovirus promoter and selected using neomycin. Nitric oxide production was monitored using the indicator NO 4-amino-5-methylamino-2′,7′-difluorofluorescent diacetate.
Confluent CHO cells transfected with the Mas receptor and cultured in 6-well plates were preincubated in 1.5 ml of serum free medium (DMEM) containing DAF-FM (least 5 uM) and supplemented with 0.2% BSA, 0.005% bacitracin, […] phenylmethylsulfonyl fluoride and […] 1, 10-phenanthroline at 37° C. in a humidified incubator in an atmosphere with 5% CO2. After 30 minutes, cells were washed and incubated with arg0-Ang-(1-7) and Ang-(1-7) at 10^−7 mol/L for 60 minutes. Subsequently, the cells were washed twice and the slides were mounted for confocal microscopy for evaluation.
Relative fluorescence measurements were made using a Zeiss LSM 510 laser scanning META confocal microscope excited at 488 nm with an argon-ion laser (objective lens immersion oil, 63×).
Results are presented as mean±SEM. One-way analysis of variance with Bonferroni post-test for multiple comparisons was used to compare the concentration-response curve in CHO cells transfected with the receptor Mas. All statistical analyses were considered significant when p<0.05.

For the substance Asp-Arg-Val-Tyr-Ile-His-Pro [Ang-(1-7)], the “endothelium dependence of the vasorelaxant effect” value in assay [1] is “endothelium-dependent”. The Emax of vasorelaxation in assay [2] is 28%. Moreover, in the assay with rat receptor Mas, the nitric oxide production entry is reported as “stimulated nitric oxide production”.
